Measured values: patent US20140227173A1, “CANCER TREATMENT WITH GAMMA-SECRETASE INHIBITORS” (The Johns Hopkins University, priority 2006, published 2014)

Key:
Akt = Akt phosphorylation and Caspase3 cleavage in GBM neurosphere cells; format: cell-based
Procedure: (A) Increase of cleaved Caspase 3 and loss of Akt phosphorylation is induced by 0.4 uMor higher levels of GSI-18, while overall levels of Akt and GAPDH are unchanged in DAOY medulloblastoma cells. (B) Cell death in 2 uM GSI-18 is reduced in a representative subclone of DAOY expressing activated Akt as compare to vector transfected cells. (C) Loss of Akt phosphorylation and activation of Caspase3 cleavage is induced by 2 μM or higher levels of GSI-18, while overall levels of Akt and GAPDH are unchanged in GBM neurosphere cells.
It has been shown that the Notch signaling pathway regulates normal stem cells in the Central Neural System (CNS), and that GBMs contain cancer stem cells (CSCs) with higher Notch activity (Cancer Research, 64:7011-21, 2004; Cancer Cell, 9:391-403, 2006). However, it has not been known if Notch pathway blockade could target CSCs in GBM. […] In the present study, we used GBM neurospheres to examine the effects of Notch pathway blockade in GBM. […] Furthermore, overexpression of an active form of Notch2 (NICD2) increases tumor growth in vitro.

D425Med [1] = experiment: Xenograft initiation by pretreated cells in athymic (nude) mice; format: in vivo; conditions: treated 48 hours, n=2
PFSK = experiment: Number of live cells (Guava Viacount); format: cell-based; conditions: 2 μM
Procedure: (§1) The fact that cultures grew 2-fold or more during the same time period that side population was essentially ablated by Notch pathway blockade provides additional support for the notion that medulloblatoma CSC are especially vulnerable to Notch signaling inhibition.
(§2) The DAOY, PFSK, D283 and D425 Med cell lines were obtained from the American Type Culture Collection. The low-passage MB line MB2 was derived from a tumor resected at Johns Hopkins Hospital. For treatment studies, cell were plated and allowed to grow overnight in MEM (Invitrogen, Carlsbad, Calif.) containing 10% FBS, then media was replaced the next morning with low serum (0.5% FBS) MEM containing GSI dissolved in DMSO. RNA and protein extractions, and all cell-based assays, were performed 48 hours after drug application unless otherwise noted. All experiments with error bars were performed in triplicate and shown as mean values with standard error unless otherwise noted. Cell mass was measured using CellTITER assays according to the manufacturer's instructions (Promega, Madison, Wis.). Cell number and viability were assessed using the Guava PCA and Viacount reagent according to instructions (Guava Technologies, Heyward, Calif.). Soft agar assays were performed as previously described (15) and scored either manually after 4 weeks or using as automated reader after 6 weeks. The constitutively active Akt stable cell line was made by transfecting DAOY cells with myristolated Akt (pCB6-IMy-Akt-HA) or control (pCB6+) plasmids (kind gifts from Susan J. Baker) and selecting and maintaining clones in 0.8 mg/ml G418. Soft agar assays were performed as previously described, with colonies counted using an automated reader (15).

D283Med = experiment: Number of live cells (Guava Viacount); format: cell-based; conditions: 2 μM
Procedure: as §1, §2

D425Med [2] = experiment: Number of live cells (Guava Viacount); format: cell-based; conditions: 2 μM
Procedure: as §1, §2

DAOY [3] = experiment: Number of live cells (Guava Viacount); format: cell-based; conditions: 2 μM
Procedure: as §1, §2

DAOY [4] = experiment: Clonogenic assay in soft agar; format: cell-based; conditions: equal number of viable cells seeded after 48 hours of treatment; 2 μM; vehicle 2.9%
Procedure: A clonogenic assay was used to determine whether cells capable of initiating anchorage-independent colonies were depleted by GSI-18. In vehicle-treated DAOY cultures, 2.9% of cells formed large colonies when seeded in soft agar (FIG. 7H). This number dropped to 0.26% when an equal number of viable cells were counted and seeded after 48 hours of treatment with GSI-18, and increased to 7.2% in the presence of constitutive Notch2 activation. Initiation of tumor xenografts was assayed next, a strategy used in several previous studies to examine the presence or absence of cancer stem cells (6-8). DAOY and DAOY:NICD2 cultures were treated with either 2 μM GSI-18 or vehicle alone, and the viable cells remaining after 48 hours counted using Trypan blue. […] To rule out the possibility that cells were alive but moribund following gamma-secretase inhibition, the experiment was repeated with cells counted after a recovery period.
The DAOY, PFSK, D283 and D425 Med cell lines were obtained from the American Type Culture Collection. […] Cell mass was measured using CellTITER assays according to the manufacturer's instructions (Promega, Madison, Wis.). Cell number and viability were assessed using the Guava PCA and Viacount reagent according to instructions (Guava Technologies, Heyward, Calif.). […] Soft agar assays were performed as previously described, with colonies counted using an automated reader (15).

[5] = system: Notch pathway target Hes1; experiment: Hes1 mRNA and protein levels (RT PCR, Western blot); format: cell-based
Procedure: as §2, with “The constitutively active Akt stable cell line was made by transfecting DAOY cells with myristolated Akt (pCB6-IMy-Akt-HA) or control (pCB6+) plasmids (kind gifts from Susan J. Baker) and selecting and maintaining clones in 0.8 mg/ml G418.” left out
Quantitative RT PCR for Notch1, Notch2 and Hes1 was performed as previously described (29), with all reactions normalized to actin (Applied Biosystems, Foster City, Calif.). […]

[6] = system: Hes1, a Notch pathway target gene; experiment: Hes1 protein expression in GBM neurosphere cells; format: cell-based
Procedure: (A, B) CD133 is expressed in GBM neurosphere line HSR-GBM1a. (C) The total cell number was decreased upon GSI-18 treatment for 48 h in this line and in the subclones of the line. […] (E) Protein expression of Hes1, a Notch pathway target gene, was reduced upon GSI-18 treatment in GBM neurosphere cells.

## O=S(=O)(NC1C2CCC1Cc1ccccc1C2)c1cccs1 (stereo not drawn) [GSI-18, [11-endo]-N-(5,6,7,8,9,10-hexahydro-6,9-methanobenzo[α][8]annulen-11-yl)-thiophene-2-sulfonamide]
Akt; GBM neurosphere cells
  levels inducing loss of Akt phosphorylation and activation of Caspase3 cleavage: ≥ 2 µM
Akt; GBM neurosphere lines
  expression of cleaved caspase 3 and phosphorylated Akt: Increased expression of cleaved caspase 3 and reduced expression of phosphorelated Akt
D425Med [1]
  engraftment of pretreated cells: failed to engraft
PFSK
  growth in the number of live cells: reduced as compared to vehicle treated controls
D283Med
  growth in the number of live cells: reduced as compared to vehicle treated controls
D425Med [2]
  growth in the number of live cells: reduced as compared to vehicle treated controls
DAOY [3]
  growth in the number of live cells: reduced as compared to vehicle treated controls
DAOY [4]
  cells forming large colonies in soft agar: 0.26%
[5]; 2 μM, after 48 hours
  reduction of mRNA and protein levels of Hes1: over 70%
[5]; data not shown
  levels that did not affect Hes1 mRNA levels: lower than 0.4 μM
[6]
  protein expression of Hes1: reduced
